Here are results for 26 compounds from ChEMBL document CHEMBL1201862, “PubChem BioAssay data set” (2004).

Active and inactive are the calls of the source.

In experiment [1] the target is T1, Calpain-2 catalytic subunit (Sus scrofa, UniProt P43367).
T1 sequence (P43367 whole entry): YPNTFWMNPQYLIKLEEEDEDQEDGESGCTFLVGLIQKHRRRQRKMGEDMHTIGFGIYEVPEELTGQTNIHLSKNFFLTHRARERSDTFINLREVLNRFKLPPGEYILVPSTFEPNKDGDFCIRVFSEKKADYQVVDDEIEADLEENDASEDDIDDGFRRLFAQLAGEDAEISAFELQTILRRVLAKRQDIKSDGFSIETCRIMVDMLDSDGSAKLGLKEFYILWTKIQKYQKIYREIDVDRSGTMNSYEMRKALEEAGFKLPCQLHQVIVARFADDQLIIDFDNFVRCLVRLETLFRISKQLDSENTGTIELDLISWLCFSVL
In words: m-calpain protease blockers, concentration series – biochemical, fluorogenic peptide substrate, dose response (AID 1420). In kind it is functional.

A short description of experiment [2]: reduction of Shn3 3'UTR-driven luciferase in osteoblasts – cell-based, Clone20 osteoblasts, firefly luciferase, cherry-picked, dose response (AID 624132).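 Further: firefly luciferase luminescence from reporter carrying the Shn3 3'UTR in osteoblasts.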 The experiment is classed as functional.
Experiment [3] in a line: non-specific 3'UTR reporter inhibition in Clone20-Shn3RL – cell-based, Renilla luciferase, cherry-picked, counter-screen for Shn3 inhibitor project, dose response (AID 624133). In kind it is functional. (A counterscreen serves to expose hits that act by an unwanted route or on another target.)
Experiment [4] is described as follows: viability of uninfected HEp-2 cells – cell-based, HTS, cytotoxicity control for RSV inhibitor project, dose response (AID 2410). The experiment is classed as functional. To be noted: human respiratory syncytial virus.
The nature of experiment [5]: NIH-3T3 fibroblast cytotoxicity, dose response, cytotoxicity control, cell-based, fluorescence, Alamar Blue, secondary assay (AID 2327).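 Further: NIH-3T3 mouse fibroblasts cultured with fluconazole at 8 µg/mL.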 In kind it is functional. (In general: Alamar Blue is a resazurin reagent that responds to reducing activity.)
Experiment [6] in a line: fluconazole-exposed Candida albicans growth modulators – fluorescence, retest, confirmation (AID 2467). In kind it is functional, cell-based.
The nature of experiment [7]: Luminescence Cell-Based Dose Confirmation HTS to Identify Inhibitors of Platelet Dense Granule Release. [Related pubchem assays: 1663 (Primary HTS), 1678 (Summary of Project)]. The experiment is classed as functional.
The target in experiment [8] is Luciferin 4-monooxygenase (Photinus pyralis, UniProt P08659). In words: inhibition of purified Photinus pyralis luciferase – biochemical, luminescence, dose response (AID 1891).
Experiment [9] addresses FAD-linked sulfhydryl oxidase ALR (Homo sapiens, UniProt P55789). As to the kind of experiment: ALR-catalysed DTT oxidation blockers – biochemical, H2O2 detection, luminescence, cherry-pick, dose response (AID 493248).
In experiment [10] the test system is BJ. As to the kind of experiment: cells. In kind it is functional, cell-based. To be noted: Homo sapiens.
Experiment [11] in a line: DRD fibroblast viability loss – cell-based, non-viral oncogenic, luminescence, dose response (AID 1934). To be noted: Homo sapiens. In kind it is functional.
Experiment [12] has as its system BJ. As to the kind of experiment: BJ-TERT fibroblast viability loss – cell-based, RAS-independent, luminescence, dose response (AID 1933). To be noted: Homo sapiens. The experiment is classed as functional.
Experiment [13] has as its system BJ. As to the kind of experiment: BJ-TERT-LT-ST fibroblast viability loss – cell-based, RAS-independent, luminescence, dose response (AID 1935).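 Further: BJ fibroblasts immortalized with TERT plus LT and ST oncogenes.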 The experiment is classed as functional. To be noted: Homo sapiens.
The target of experiment [14] is T2, Rac GTPase-activating protein 1 (Homo sapiens, UniProt Q9H0H5).
T2 sequence (Q9H0H5 whole entry): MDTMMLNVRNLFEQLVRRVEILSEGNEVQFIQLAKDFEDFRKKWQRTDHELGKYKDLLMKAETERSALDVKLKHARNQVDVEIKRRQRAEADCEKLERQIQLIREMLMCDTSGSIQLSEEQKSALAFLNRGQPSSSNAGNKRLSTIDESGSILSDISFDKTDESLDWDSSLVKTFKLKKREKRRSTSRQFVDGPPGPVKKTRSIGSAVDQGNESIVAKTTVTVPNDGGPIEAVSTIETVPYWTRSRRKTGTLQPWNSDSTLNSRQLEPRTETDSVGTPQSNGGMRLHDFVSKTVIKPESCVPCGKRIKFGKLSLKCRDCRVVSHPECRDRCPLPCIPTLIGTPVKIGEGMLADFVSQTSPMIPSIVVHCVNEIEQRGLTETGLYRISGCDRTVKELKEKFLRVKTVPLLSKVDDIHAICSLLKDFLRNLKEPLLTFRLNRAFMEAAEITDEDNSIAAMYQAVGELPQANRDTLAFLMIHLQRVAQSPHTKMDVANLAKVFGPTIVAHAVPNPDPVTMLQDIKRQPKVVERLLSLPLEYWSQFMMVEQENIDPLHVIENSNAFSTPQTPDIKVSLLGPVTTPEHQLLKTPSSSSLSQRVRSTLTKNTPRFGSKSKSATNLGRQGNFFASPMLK
As to the kind of experiment: blockers of MgcRacGAP-driven Rac1 GTP hydrolysis – biochemical, ADP Hunter fluorescence, primary and confirmatory, confirmation (AID 624330). In kind it is functional.

A short description of experiment [15]: blockers of HIV-1 envelope-mediated cell-cell fusion – cherry-pick, dose response (AID 652057). The experiment is classed as functional, cell-based.
The target in a further experiment is Paired box protein Pax-8 (Homo sapiens, UniProt Q06710). In words: PAX8 transcriptional activity inhibition in RMG-I – RMG-I cells, luciferase, cherry-pick, dose response (AID 687027).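 Further: luciferase reporter driven by Pax8 target thyroperoxidase promoter measured by SteadyGlo luminescence.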 In kind it is functional, cell-based.
The subject of a further experiment is INS1. As to the kind of experiment: INS-1E survival protection against cytokine death – cell-based, luminescence, retest, dose response (AID 449756).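 Further: cell death triggered by IL-1 beta plus TNF-alpha plus IFN-gamma mixture; protective hits raise ATP signal compared with cytokine alone wells.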 The experiment is classed as functional. To be noted: Rattus norvegicus.

FAD-linked sulfhydryl oxidase ALR, sequence (P55789 whole entry): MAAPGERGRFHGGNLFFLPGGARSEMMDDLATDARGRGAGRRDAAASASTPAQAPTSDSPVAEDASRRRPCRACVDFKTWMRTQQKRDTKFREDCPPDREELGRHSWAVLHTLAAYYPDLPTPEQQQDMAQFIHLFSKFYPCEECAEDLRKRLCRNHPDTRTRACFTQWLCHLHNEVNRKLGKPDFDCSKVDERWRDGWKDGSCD
Paired box protein Pax-8, sequence (Q06710 whole entry): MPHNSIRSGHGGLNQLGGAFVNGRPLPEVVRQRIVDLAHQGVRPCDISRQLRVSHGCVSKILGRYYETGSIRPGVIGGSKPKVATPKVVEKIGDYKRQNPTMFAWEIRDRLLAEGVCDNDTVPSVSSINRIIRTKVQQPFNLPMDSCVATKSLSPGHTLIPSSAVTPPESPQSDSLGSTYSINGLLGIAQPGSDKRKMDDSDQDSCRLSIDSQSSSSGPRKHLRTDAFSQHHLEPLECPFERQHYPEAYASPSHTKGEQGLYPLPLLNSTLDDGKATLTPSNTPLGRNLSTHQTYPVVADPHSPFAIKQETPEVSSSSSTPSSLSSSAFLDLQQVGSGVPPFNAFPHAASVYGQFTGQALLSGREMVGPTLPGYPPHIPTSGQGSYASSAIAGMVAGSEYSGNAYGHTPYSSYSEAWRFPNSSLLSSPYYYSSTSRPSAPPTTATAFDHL
Luciferin 4-monooxygenase, sequence (P08659 whole entry): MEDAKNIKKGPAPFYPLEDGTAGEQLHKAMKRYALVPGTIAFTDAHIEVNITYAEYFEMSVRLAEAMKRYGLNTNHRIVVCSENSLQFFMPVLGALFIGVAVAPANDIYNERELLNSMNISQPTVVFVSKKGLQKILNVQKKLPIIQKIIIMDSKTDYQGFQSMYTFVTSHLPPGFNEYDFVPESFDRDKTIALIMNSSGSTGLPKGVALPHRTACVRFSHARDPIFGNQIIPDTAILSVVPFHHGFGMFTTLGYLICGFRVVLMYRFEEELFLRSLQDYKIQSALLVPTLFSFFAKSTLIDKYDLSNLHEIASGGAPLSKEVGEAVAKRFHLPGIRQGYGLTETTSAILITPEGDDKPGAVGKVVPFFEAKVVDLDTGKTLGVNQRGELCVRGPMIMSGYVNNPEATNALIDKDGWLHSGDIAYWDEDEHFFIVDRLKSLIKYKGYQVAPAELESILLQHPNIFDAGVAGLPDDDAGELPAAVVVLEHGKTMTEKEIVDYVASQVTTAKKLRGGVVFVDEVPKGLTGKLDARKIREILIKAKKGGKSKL

Usually IC50 stands for the concentration that inhibits the measured activity by half. In the case of `Cc1ccccc1NC(=O)Cn1c(=O)n(Cc2ccccc2)c(=O)c2c(C)c(C)sc21`, the IC50 in experiment [1] was 15 µM (not active). The AC50 is the midpoint of the concentration-response curve, whichever way the signal moves. Usually CC50 stands for the concentration at which the toxic effect on the cells reaches its halfway point. Turning to `CCc1c(C)nc2cc(-c3ccc(OC)c(OC)c3)nn2c1NCC1CC1`, the AC50 was 5.11 µM (active) in experiment [2] and 5.44 µM (active) in experiment [3]. The 50% cytotoxic concentration (CC50) in experiment [4] is 13.7 µM (active). The term EC50 denotes the concentration needed to bring the measured effect to its halfway point. `CCCOc1cccc(-c2cc(C(=O)NN=C(S)NCC)c3ccccc3n2)c1`: the EC50 in experiment [5] was > 160 µM (inactive); in experiment [6], > 38 µM (not active); in experiment [7], > 112 µM (not active); in experiment [8] it was 1.41 µM (active).

With `Cc1nc(Nc2ccccc2Cl)sc1C(=O)Nc1ccccc1`, the EC50 in [5] was 28.6 µM (active); in [6], > 38 µM (not active). The like results for `CN(Cc1ccccc1)S(=O)(=O)c1ccc(C(=O)Nc2nnc(C3CC3)o2)cc1` were, in that order, > 160 µM (inactive) and 1.76 µM (active). Consider `COc1cccc(N2CCN(CC(=O)NCc3cccs3)CC2)c1`, for which the AC50 in experiment [9] is 4.1 µM (active). For `CCn1cnc2c1c(=O)n(CC(=O)Nc1ccc3c(c1)OC(F)(F)O3)c(=O)n2Cc1ccccc1`, the IC50 in experiment [1] was < 0.4 µM (not active). Same read-out and setting: the result for `CC(C)C[C@H](NC(=O)c1[nH]cnc1C(=O)NCCCCCNC(=O)OC(C)(C)C)C(=O)OC(C)(C)C` reads 26.6 µM (not active). In the case of `Cc1ccccc1NC(=O)Cc1nc(CCl)cs1`, in experiment [9], the AC50 was 10.8 µM (active). As for `CC(C)Cn1c(N)c(C(=O)COC(=O)c2ccc(Cl)cc2)c(=O)n(C)c1=O`, the IC50 in experiment [1] is 2.21 µM (active).

For `COc1ccc(NCc2nc3ccccc3n2C)cc1`, the AC50 in [9] was 3.46 µM (active).

Turning to `COc1ccccc1NC(=O)COC(=O)C12CC3CC(CC(Cl)(C3)C1)C2`, the IC50 in experiment [1] is listed as 13 µM (not active). As to `CC(C)NC(=O)COC(=O)c1cccc(NS(=O)(=O)/C=C/c2ccccc2)c1`, in experiment [5], the EC50 was > 160 µM (inactive). Regarding `COc1cc(CNc2ncc(-c3ccc(Cl)cc3)n2C)cc(OC)c1OC`, the AC50 in experiment [9] is 4.59 µM (active).

Regarding `CCN(CC)c1ccc(C(=O)NNC(=O)CCl)cc1`, in [1], the IC50 was 9.84 µM (active). As to `CCCn1c(SCC(=O)Nc2ccccc2OC)nnc1-c1ccco1`, the EC50 in the experiment with BJ [10] is 50.9 µM (active); in [11], 21.1 µM (active); in the experiment with BJ [12], 29.2 µM (active); with BJ [13] it was > 150 µM (inconclusive). As for `CC(C)N(C(=O)COC(=O)c1ccc(O)cc1)C(C)C`, in experiment [1], the IC50 is 18.7 µM (not active). Take `Cc1ccc(NC2CCCN(C(=O)c3snnc3C)C2)cc1C` (stereo unspecified): the AC50 in experiment [9] is 1.64 µM (active). `CC(C)(C)N1C(=O)c2ccc(C(=O)Nc3ccc(O)cc3)cc2C1=O`: the AC50 in experiment [9] is 3.13 µM (active). Besides, the IC50 in experiment [14] was 26.8 µM (active). For the compound `CCC1=Nc2cc(C(=O)NCCN3CCOCC3)ccc2Sc2ccc(Br)cc21`, the EC50 (in the experiment on BJ [10]; in experiment [11]; with BJ [12]; in the experiment on BJ [13]) was > 150 µM (not active) throughout. With `Cc1ccc(NC2CCCN(C(=O)C3CCCC3)C2)cc1C` (stereo unspecified), the AC50 in [9] is 4.78 µM (active). Consider `Nc1ccccc1Sc1ccc(C(F)(F)F)cc1[N+](=O)[O-]`, for which the IC50 in experiment [1] was 2.55 µM (active). Consider `C[C@H]1CN([C@@H](C)CO)S(=O)(=O)c2ccc(-c3cccc(F)c3)cc2O[C@H]1CN(C)S(=O)(=O)c1ccccc1`, for which the AC50 in experiment [15] was 25.7 µM (active). As to `O=C(C[C@@H]1C[C@H]2c3cc(NC(=O)Nc4ccc(C(F)(F)F)cc4)ccc3O[C@H]2[C@H](CO)O1)NCCc1ccccc1`, the AC50 at Paired box protein Pax-8 is 15.9 µM (active).

On to `Cc1ccc(-c2[nH]ncc2/C=N/n2c(COc3ccccc3C)nc3ccccc3c2=O)cc1`, for which the IC50 in [1] is 28 µM (not active). Besides, the AC50 with INS1 is 6.28 µM (active). As to `O=[N+]([O-])c1cccc(/C=N\N=C2c3ccccc3-c3ccccc32)c1O`, the IC50 in experiment [1] was < 0.4 µM (not active).
